The text below walks through data of patent publication US7109216B2 (priority 2001, dated 2006).

One series addresses CB1 receptor (Homo sapiens, UniProt P21554). Conditions: Meschler et al. 2000; cited from earlier work.
The target of series [1] is T1, human cannabinoid CB1 receptor (Homo sapiens, UniProt P21554). Description: Cannabinoid CB1 antagonistic activity, forskolin-induced cAMP accumulation in CHO cells. The format is cell-based. Set-up: expressed in transfected cells; host or cells: CHO cells. Conditions: antagonism of CB1 agonist (e.g. CP-55,940 or (R)-WIN-55,212-2) effect on forskolin-induced cAMP accumulation, CHO cells expressing human CB1; for Kb: read-out: hCB1 pA2 (converted). As to the method: The cannabinoid CB1 antagonistic activity of compounds of the invention was determined by functional studies using CHO cells in which human cannabinoid CB1 receptors were stably expressed. Adenylyl cyclase was stimulated using forskolin and measured by quantifying the amount of accumulated cyclic AMP. Concomitant activation of CB1 receptors by CB1 receptor agonists (e.g. CP-55,940 or (R)-WIN-55,212–2) can attenuate the forskolin-induced accumulation of cAMP in a concentration-dependent manner. This CB1 receptor-mediated response can be antagonized by CB1 receptor antagonists such as the compounds of the invention.
T1 sequence (P21554 whole entry): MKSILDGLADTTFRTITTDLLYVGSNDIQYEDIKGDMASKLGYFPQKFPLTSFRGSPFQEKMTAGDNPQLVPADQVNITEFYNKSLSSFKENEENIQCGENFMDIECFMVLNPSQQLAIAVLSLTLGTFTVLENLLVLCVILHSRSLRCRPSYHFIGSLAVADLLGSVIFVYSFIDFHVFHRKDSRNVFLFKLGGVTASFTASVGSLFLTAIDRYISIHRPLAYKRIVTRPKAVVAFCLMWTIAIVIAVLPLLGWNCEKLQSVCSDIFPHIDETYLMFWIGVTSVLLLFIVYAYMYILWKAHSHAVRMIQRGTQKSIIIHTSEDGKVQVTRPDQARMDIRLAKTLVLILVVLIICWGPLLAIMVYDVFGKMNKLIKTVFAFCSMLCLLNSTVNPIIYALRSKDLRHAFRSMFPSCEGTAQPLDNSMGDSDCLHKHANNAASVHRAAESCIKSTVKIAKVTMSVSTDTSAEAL

Series [2] addresses T1, human cannabinoid CB1 receptor. The series can be described thus: biochemical. The format is binding. Set-up: expressed in transfected cells; host or cells: Chinese hamster ovary (CHO) cells, membrane preparation. Conditions: hCB1 pKi, [3H]CP-55,940 radioligand; CHO cell membranes stably transfected with human CB1. Here is the method: After incubation of a freshly prepared cell membrane preparation with the [^3H]-ligand, with or without addition of compounds of the invention, separation of bound and free ligand was performed by filtration over glassfiber filters. Radioactivity on the filter was measured by liquid scintillation counting.

SMILES strings stand for the structures.

Chain of CB1 receptor (P21554 whole entry): as above

For the compound `COc1ccc(-c2c(C#N)c(C(=O)Nc3ccccc3)nn2-c2ccccc2Cl)cc1` [CP-272871], on CB1 receptor, the “CB1 receptor subtype selectivity compared with SR141716A” value is “less CB1 receptor subtype-selective” and the “potency compared with SR141716A” value is “less potent”.
By melting point is commonly meant the temperature of the solid-liquid transition. For orientation: Ki means a dissociation constant, usually derived from enzyme kinetics or from competition with a known ligand. Low readings indicate tighter binding, high ones weaker binding. For `Cc1c(C(=O)NN2CCOCC2)nc(-c2ccc(Cl)cc2Cl)n1-c1ccc(Cl)cc1` [Example 94, 1-(4-Chlorophenyl)-2-(2,4-dichlorophenyl)-5-methyl-N-(morpholin-4-yl)-1H-imidazole-4-carboxamide], the melting point was 225 °C (dec.). Besides, in series [1], the “hCB1 pA2” value is reported as 7.5. In series [2], this compound showed a Ki of 0.1 µM.
For `Cc1c(C(=O)NCc2ccc(C(F)(F)F)cc2)nc(-c2ccc(Cl)cc2Cl)n1-c1ccc(Cl)cc1` [Example 106, 1-(4-Chlorophenyl)-2-(2,4-dichlorophenyl)-5-methyl-N-(4-(trifluoromethyl)benzyl)-1H-imidazole-4-carboxamide], the melting point was 232 °C. Moreover, the “hCB1 pA2” value in series [1] is 8.9. Besides, the Ki in series [2] was 0.1 µM.
Turning to `Cc1c(C(=O)NC2CCCC2)nc(-c2ccc(Cl)cc2Cl)n1-c1ccc(Cl)cc1` [Example 107, 1-(4-Chlorophenyl)-N-cyclopentyl-2-(2,4-dichlorophenyl)-5-methyl-1H-imidazole-4-carboxamide], the melting point is 172 °C. The “hCB1 pA2” value in series [1] amounted to 8.9. Moreover, in series [2], the Ki is 0.158 µM.
On the same counts, the results for `Cc1c(C(=O)NC2CCCCCC2)nc(-c2ccc(Cl)cc2Cl)n1-c1ccc(Cl)cc1` [Example 108, 1-(4-Chlorophenyl)-N-cycloheptyl-2-(2,4-dichlorophenyl)-5-methyl-1H-imidazole-4-carboxamide] are 154 to 156 °C, 9.1 and 0.00794 µM.
The compound `O=C(NN1CCCCC1)c1nc(-c2ccc(Cl)cc2Cl)n(-c2ccc(Cl)cc2)c1I` [Example 111, 1-(4-Chlorophenyl)-2-(2,4-dichlorophenyl)-5-iodo-N-(piperidin-1-yl)-1H-imidazole-4-carboxamide] showed a melting point of 196 to 201 °C. For the same compound, the Kb in series [1] is 0.00251 µM. The compound also showed a Ki in series [2] of 0.00631 µM.
The like results for `O=C(NN1CCCCC1)c1nc(-c2ccc(Cl)cc2Cl)n(-c2ccc(Cl)cc2)c1Br` [Example 117, 1-(4-chlorophenyl)-2-(2,4-dichlorophenyl)-5-bromo-N-(piperidin-1-yl)-1H-imidazole-4-carboxamide] were, in that order, 181.5 to 183 °C, 0.00251 µM and 0.01 µM.
In the case of `CS(=O)(=O)c1c(C(=O)NN2CCCCC2)nc(-c2ccc(Cl)cc2Cl)n1-c1ccc(Cl)cc1` [Example 118, 1-(4-Chlorophenyl)-2-(2,4-dichlorophenyl)-5-methylsulfonyl-N-(piperidin-1-yl)-1H-imidazole-4-carboxamide], the melting point is 181 to 185 °C (dec.). The “hCB1 pA2” value in series [1] worked out at 8.5. Also, in series [2], the Ki was 0.0158 µM.
Consider `CSc1c(C(=O)NN2CCCCC2)nc(-c2ccc(Cl)cc2Cl)n1-c1ccc(Cl)cc1` [Example 120, 1-(4-Chlorophenyl)-2-(2,4-dichlorophenyl)-5-methylsulfanyl-N-(piperidin-1-yl)-1H-imidazole-4-carboxamide], for which the melting point was 170 °C (dec.). For the same compound, in series [1], the Kb was 0.000631 µM. Affinity in series [2] was put at a Ki of 0.0126 µM.
